Laboratory results reported in US8148391B2 (Cephalon, Inc., priority 2006, dated 2012).
Where two headings read alike, the source gives them in different places. Blank lines part the entries; values can stand above or below the molecule they belong to.

Assays:
[1] = molecular target: T1, baculovirus-expressed ALK (Homo sapiens, UniProt Q9UM73); assay: ALK Kinase Assay (ELISA-type, time-resolved fluorescence); type: biochemical
T1 construct: host or cells: baculovirus expression system
Summary of the method: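 Substrate coating: phospholipase C-γ, 10 μg/mL in TBS. Kinase step: 30 ng/ml ALK, 15 min, 37° C. Detection and analysis: Eu-N1 PT66 antibody, with IC50 fitted as a sigmoidal variable-slope dose-response curve.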

[2] = molecular target: T2, c-Met (cytoplasmic domain) (Homo sapiens, UniProt P08581); assay: c-Met Kinase Assay (same methods as for ALK, with modifications); type: biochemical
T2 construct: 10 ng/mL c-Met (cytoplasmic domain, Invitrogen Corporation #PV3143); purchased Invitrogen Corporation PV3143
T2 sequence (P08581 956-1390 limits assumed): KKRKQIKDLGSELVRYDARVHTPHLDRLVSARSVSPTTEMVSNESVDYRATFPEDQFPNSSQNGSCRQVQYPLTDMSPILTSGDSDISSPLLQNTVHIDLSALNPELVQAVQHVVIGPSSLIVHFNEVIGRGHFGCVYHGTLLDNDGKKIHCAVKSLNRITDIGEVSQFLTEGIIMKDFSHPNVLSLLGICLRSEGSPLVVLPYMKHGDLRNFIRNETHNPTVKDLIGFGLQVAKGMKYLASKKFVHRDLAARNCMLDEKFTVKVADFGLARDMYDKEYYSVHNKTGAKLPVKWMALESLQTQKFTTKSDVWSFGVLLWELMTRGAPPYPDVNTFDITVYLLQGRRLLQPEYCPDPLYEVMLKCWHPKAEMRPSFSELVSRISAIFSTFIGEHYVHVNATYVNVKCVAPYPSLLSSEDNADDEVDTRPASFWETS
Summary of the method: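 Wells were coated with 10 μg/mL phospholipase C-γ substrate in TBS, and reactions were started with 10 ng/mL c-Met cytoplasmic domain and run at 37° C for 15 minutes. Phosphorylated product was detected with Eu-N1-labeled PT66 antibody. IC50 values came from sigmoidal variable-slope fits of percent inhibition versus log compound concentration.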

[3] = 1 μM ATP (Km level), read-out: ALK Activity (ALK Kinase Inhibition, IC50)
[4] = 1 μM ATP (Km level), read-out: cMet Activity (c-Met Kinase Inhibition, IC50)
[5] = ALK kinase inhibition, 1 μM ATP (Km level), read-out: ALK Activity
[6] = c-Met kinase inhibition, 1 μM ATP (Km level), read-out: cMet Activity
[7] = ALK kinase inhibition, 1 μM ATP, read-out: ALK Activity
[8] = c-Met kinase inhibition, 1 μM ATP, read-out: cMet Activity

T1 sequence (Q9UM73 19-1620): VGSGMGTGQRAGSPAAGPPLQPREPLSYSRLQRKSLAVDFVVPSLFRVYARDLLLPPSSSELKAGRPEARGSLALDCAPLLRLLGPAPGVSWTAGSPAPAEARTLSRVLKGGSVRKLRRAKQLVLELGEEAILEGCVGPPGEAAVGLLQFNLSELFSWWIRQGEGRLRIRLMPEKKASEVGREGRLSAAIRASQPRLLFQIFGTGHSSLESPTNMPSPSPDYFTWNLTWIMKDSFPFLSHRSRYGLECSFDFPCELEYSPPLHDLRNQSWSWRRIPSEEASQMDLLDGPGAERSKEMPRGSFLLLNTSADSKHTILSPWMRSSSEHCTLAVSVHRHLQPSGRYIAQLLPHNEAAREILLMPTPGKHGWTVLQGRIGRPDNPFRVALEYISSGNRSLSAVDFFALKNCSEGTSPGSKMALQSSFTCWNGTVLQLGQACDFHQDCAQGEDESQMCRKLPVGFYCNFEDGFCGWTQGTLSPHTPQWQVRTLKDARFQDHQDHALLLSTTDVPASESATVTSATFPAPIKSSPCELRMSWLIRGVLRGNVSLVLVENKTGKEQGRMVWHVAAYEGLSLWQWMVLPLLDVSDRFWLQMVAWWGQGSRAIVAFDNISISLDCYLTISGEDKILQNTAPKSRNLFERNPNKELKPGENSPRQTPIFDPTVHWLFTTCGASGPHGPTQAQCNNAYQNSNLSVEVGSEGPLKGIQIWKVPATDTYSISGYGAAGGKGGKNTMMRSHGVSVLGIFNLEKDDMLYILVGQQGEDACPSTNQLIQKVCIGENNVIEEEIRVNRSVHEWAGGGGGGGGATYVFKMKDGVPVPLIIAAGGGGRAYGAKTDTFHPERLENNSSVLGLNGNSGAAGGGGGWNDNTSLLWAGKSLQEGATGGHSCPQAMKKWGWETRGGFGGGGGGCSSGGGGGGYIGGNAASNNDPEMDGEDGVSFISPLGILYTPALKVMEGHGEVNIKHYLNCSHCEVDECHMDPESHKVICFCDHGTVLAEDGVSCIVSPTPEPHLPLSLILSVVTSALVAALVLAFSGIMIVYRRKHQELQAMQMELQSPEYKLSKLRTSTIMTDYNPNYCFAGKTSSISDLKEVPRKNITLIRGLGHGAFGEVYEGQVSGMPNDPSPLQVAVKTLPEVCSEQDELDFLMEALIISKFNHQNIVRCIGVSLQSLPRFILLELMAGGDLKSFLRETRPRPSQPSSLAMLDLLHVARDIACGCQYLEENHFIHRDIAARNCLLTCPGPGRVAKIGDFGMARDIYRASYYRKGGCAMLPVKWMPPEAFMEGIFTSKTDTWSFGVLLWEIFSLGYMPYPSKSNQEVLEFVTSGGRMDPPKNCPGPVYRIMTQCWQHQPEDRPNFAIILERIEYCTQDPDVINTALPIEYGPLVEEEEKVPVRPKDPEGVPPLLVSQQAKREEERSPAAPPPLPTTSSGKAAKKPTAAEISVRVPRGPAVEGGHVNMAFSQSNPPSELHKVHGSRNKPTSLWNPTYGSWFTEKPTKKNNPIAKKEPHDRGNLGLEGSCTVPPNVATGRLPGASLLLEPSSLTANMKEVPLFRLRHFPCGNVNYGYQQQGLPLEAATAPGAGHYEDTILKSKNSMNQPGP

Molecule: COc1c(Nc2ncc(Cl)c(Nc3ccccc3S(=O)(=O)N(C)C)n2)ccc2c1CCC(N1CCCC(O)C1)CC2 (mixture of isomers) [Example 907, 2-{5-Chloro-2-[7-(3-hydroxy-piperidin-1-yl)-1-methoxy-6,7,8,9-tetrahydro-5H-benzocyclohepten-2-ylamino]-pyrimidin-4-ylamino}-N,N-dimethyl-benzenesulfonamide]
IC50 [1, 3]: < 0.1 µM | IC50 [2, 4]: > 10 µM

Molecule: COc1cc2c(cc1Nc1ncc(F)c(Nc3ccc(N4CCOCC4)cc3OC)n1)CCN(CC(N)=O)CC2 [Example 810, 2-{7-[5-Fluoro-4-(2-methoxy-4-morpholin-4-yl-phenylamino)-pyrimidin-2-ylamino]-8-methoxy-1,2,4,5-tetrahydro-benzo[d]azepin-3-yl}-acetamide]
IC50 [1, 3]: < 0.1 µM | IC50 [2, 4]: > 10 µM

Molecule: C#CCN1CCN(C)c2cc(Nc3ncc(Cl)c(Nc4ccccc4C(=O)NC)n3)ccc2C1 [Example 487, 2-[5-Chloro-2-(1-methyl-4-prop-2-ynyl-2,3,4,5-tetrahydro-1H-benzo[e][1,4]diazepin-8-ylamino)-pyrimidin-4-ylamino]-N-methyl-benzamide]
IC50 [1, 5]: < 0.1 µM | IC50 [2, 6]: < 0.1 µM

Molecule: 5-Chloro-N*2*-[1-methoxy-7-(2,2,2-trifluoro-ethylamino)-6,7,8,9-tetrahydro-5H-benzocyclohepten-2-yl]-N*4*-methyl-N*4*-[2-(propane-2-sulfonyl)-phenyl]-pyrimidine-2,4-diamine [Example 680]
IC50 [1, 3]: < 0.1 µM | IC50 [2, 4]: > 10 µM

Molecule: CCN1CCc2cc(Nc3ncc(Cl)c(NC4C5C=CC(C5)C4C(N)=O)n3)c(OC)cc2CC1=O (stereo not drawn) [Example 252, (2-exo,3-exo)-3-[5-Chloro-2-(3-ethyl-8-methoxy-2-oxo-2,3,4,5-tetrahydro-1H-benzo[d]azepin-7-ylamino)-pyrimidin-4-ylamino]-bicyclo[2.2.1]hept-5-ene-2-carboxylic acid amide]
IC50 [1, 5]: < 0.1 µM | IC50 [2, 6]: > 10 µM

Molecule: CNC(=O)c1ccccc1Nc1nc(Nc2ccc3c(c2)C2CC3CN(C(C)C)C2)ncc1Cl (centres unmarked) [Example 158, 2-[5-chloro-2-(10-isopropyl-10-aza-tricyclo[6.3.1.0*2,7*]dodeca-2,4,6-trien-4-ylamino)-pyrimidin-4-ylamino]-N-methyl-benzamide]
IC50 [1, 5]: < 0.1 µM | IC50 [2, 6]: 0.1 to 1 µM

Molecule: CNC(=O)c1ccccc1Nc1nc(Nc2ccc3c(c2OC)CCC(=O)CC3)ncc1Cl [Example 868, 2-[5-Chloro-2-(1-methoxy-7-oxo-6,7,8,9-tetrahydro-5H-benzocyclohepten-2-ylamino)-pyrimidin-4-ylamino]-N-methyl-benzamide]
IC50 [1, 3]: < 0.1 µM | IC50 [2, 4]: > 10 µM

Molecule: CS(=O)(=O)Nc1ccccc1Nc1nc(Nc2ccc3c(c2)CNCCS3(=O)=O)ncc1Cl [Example 523, N-{2-[5-Chloro-2(5,5dioxo-6,7,8,9-tetrahydro-5H-5lambda*6*-thia-8-aza-benzocyclohepten-2-ylamino)-pyrimidin-4-ylamino]-phenyl}-methanesulfonamide]
IC50 [1, 3]: 0.1 to 1 µM | IC50 [2, 4]: 1 to 10 µM

Molecule: CN(C)S(=O)(=O)c1ccccc1Nc1nc(Nc2ccc3c(c2)CCN(CC2COCCO2)CC3)ncc1Cl (centres unmarked) [Example 641, 2-[5-Chloro-2-(3-[1,4]dioxan-2-ylmethyl-2,3,4,5-tetrahydro-1H-benzo[d]azepin-7-ylamino)-pyrimidin-4-ylamino]-N,N-dimethyl-benzenesulfonamide]
IC50 [1, 3]: < 0.1 µM | IC50 [2, 4]: < 0.1 µM

Molecule: CNC(=O)c1ccccc1Nc1nc(Nc2ccc3c(c2)C2CCC3CN(S(C)(=O)=O)C2)ncc1Cl (centres unmarked) [Example 278, 2-[5-Chloro-2-(10-methanesulfonyl-10-aza-tricyclo[6.3.2.0*2,7*]trideca-2,4,6-trien-4-ylamino)-pyrimidin-4-ylamino]-N-methyl-benzamide]
IC50 [1, 5]: < 0.1 µM | IC50 [2, 6]: < 0.1 µM

Molecule: CC(C)N1C(=O)CCCc2cc(Nc3ncc(Cl)c(N[C@@H]4CCCC[C@H]4NS(C)(=O)=O)n3)ccc21 [Example 667, N-{(1R,2R)-2-[5-Chloro-2-(1-isopropyl-2-oxo-2,3,4,5-tetrahydro-1H-benzo[b]azepin-7-ylamino)-pyrimidin-4-ylamino]-cyclohexyl}-methanesulfonamide]
IC50 [1, 3]: < 0.1 µM | IC50 [2, 4]: 0.1 to 1 µM

Molecule: COc1cc2c(cc1Nc1ncc(Cl)c(Nc3cc(Cl)ccc3OC)n1)CCN(CC(C)(F)F)CC2 [Example 785, 5-Chloro-N*4*-(5-chloro-2-methoxy-phenyl)-N*2*-[3-(2,2-difluoro-propyl)-8-methoxy-2,3,4,5-tetrahydro-1H-benzo[d]azepin-7-yl]-pyrimidine-2,4-diamine]
IC50 [1, 3]: 0.1 to 1 µM | IC50 [2, 4]: > 10 µM

Molecule: CCNC(=O)c1ccccc1Nc1nc(Nc2ccc3c(c2)C(C)(C)CCC(=O)N3)ncc1Cl [Example 339]
IC50 [1, 5]: < 0.1 µM | IC50 [2, 6]: < 0.1 µM

Molecule: COCCNC1CCCc2c(ccc(Nc3ncc(Cl)c(Nc4ccccc4S(=O)(=O)C(C)C)n3)c2OC)C1 (centres unmarked) [Example 959, 5-Chloro-N(2)-[1-methoxy-6-(2-methoxy-ethylamino)-6,7,8,9-tetrahydro-5H-benzocyclohepten-2-yl]-N(4)-[2-(propane-2-sulfonyl)-phenyl]-pyrimidine-2,4-diamine]
IC50 [1, 3]: < 0.1 µM | IC50 [2, 4]: > 10 µM

Molecule: CNC(=O)c1cc(C)ccc1Nc1nc(Nc2ccc3c(c2)CCN(CCOC)CC3)ncc1Cl [Example 308, 2-{5-Chloro-2-[3-(2-methoxy-ethyl)-2,3,4,5-tetrahydro-1H-benzo[d]azepin-7-ylamino]-pyrimidin-4-ylamino}-5,N-dimethyl-benzamide]
IC50 [1, 5]: < 0.1 µM | IC50 [2, 6]: < 0.1 µM

Molecule: COCCNC1CCc2ccc(Nc3ncc(Cl)c(N[C@@H]4CCCC[C@H]4NS(C)(=O)=O)n3)c(OC)c2CC1 (single isomer, unassigned) [Example 693]
IC50 [1, 3]: < 0.1 µM | IC50 [2, 4]: > 10 µM

Molecule: COc1cc2c(cc1Nc1ncc(Cl)c(Nc3ccc(N4CCN(C5CCN(C)CC5)CC4)cc3OC)n1)CCN(CC(=O)N(C)C)CC2 [Example 835, 2-[7-(5-Chloro-4-{2-methoxy-4-[4-(1-methyl-piperidin-4-yl)-piperazin-1-yl]-phenylamino}-pyrimidin-2-ylamino)-8-methoxy-1,2,4,5-tetrahydro-benzo[d]azepin-3-yl]-N,N-dimethyl-acetamide]
IC50 [1, 3]: < 0.1 µM | IC50 [2, 4]: > 10 µM

Now from value to molecule:

IC50 [1, 7]: 0.1 to 1 µM | IC50 [2, 8]: 0.1 to 1 µM
Molecule: CNC(=O)c1cccc(F)c1Nc1nc(Nc2ccc3c(c2)N(C(=O)N2CCCC2)CCCC3(C)C)ncc1Cl [Example 1620, 2-{5-Chloro-2-[5,5-dimethyl-1-(pyrrolidine-1-carbonyl)-2,3,4,5-tetrahydro-1H-benzo[b]azepin-8-ylamino]-pyrimidin-4-ylamino}-3-fluoro-N-methyl-benzamide]

IC50 [1, 3]: < 0.1 µM | IC50 [2, 4]: > 10 µM
Molecule: CCN1C(=O)CCCc2cc(Nc3ncc(Cl)c(Nc4ccccc4-c4nccn4C)n3)c(OC)cc21 [Example 996, 7-{5-Chloro-4-[2-(1-methyl-1H-imidazol-2-yl)-phenylamino]-pyrimidin-2-ylamino}-1-ethyl-8-methoxy-1,3,4,5-tetrahydro-benzo[b]azepin-2-one]

IC50 [1, 7]: < 0.1 µM | IC50 [2, 8]: > 10 µM
Molecule: COc1cc2c(cc1Nc1ncc(Cl)c(Nc3ccccc3S(=O)(=O)C(C)C)n1)CCN(CC(=O)N1CCOCC1)CC2 [Example 1536, 2-(7-{5-Chloro-4-[2-(propane-2-sulfonyl)-phenylamino]-pyrimidin-2-ylamino}-8-methoxy-1,2,4,5-tetrahydro-3-benzazepin-3-yl)-1-morpholin-4-yl-ethanone]

IC50 [1, 7]: < 0.1 µM | IC50 [2, 8]: 0.1 to 1 µM
Molecule: COCCN1C(=O)CCC(C)(C)c2ccc(Nc3ncc(Cl)c(Nc4ccccc4OCC#N)n3)cc21 [Example 1582, (2-{5-Chloro-2-[1-(2-methoxy-ethyl)-5,5-dimethyl-2-oxo-2,3,4,5-tetrahydro-1H-benzo[b]azepin-8-ylamino]-pyrimidin-4-ylamino}-phenoxy)-acetonitrile]

IC50 ([1]; 1 μM ATP (Km level), 30 ng/ml ALK, 37° C., 15 minutes, read-out: ALK Activity (ALK kinase inhibition, IC50 class)): 0.1 to 1 µM | IC50 ([2]; 1 μM ATP (Km level), 10 ng/mL c-Met, read-out: cMet Activity (c-Met kinase inhibition, IC50 class)): 0.1 to 1 µM
Molecule: COc1cccnc1-c1ccccc1Nc1nc(Nc2ccc3c(c2)CCC(O)CC3)ncc1Cl (centres unmarked) [Example 1019, 2-{5-Chloro-4-[2-(3-methoxy-pyridin-2-yl)-phenylamino]-pyrimidin-2-ylamino}-6,7,8,9-tetrahydro-5H-benzocyclohepten-7-ol]

IC50 [1, 7]: < 0.1 µM | IC50 [2, 8]: < 0.1 µM
Molecule: CNC(=O)c1ccccc1Nc1nc(Nc2ccc3c(c2)N(C)CCCO3)ncc1Cl [Example 1708, 2-[5-Chloro-2-(9-methyl-6,7,8,9-tetrahydro-5-oxa-9-aza-benzocyclohepten-2-ylamino)-pyrimidin-4-ylamino]-N-methyl-benzamide]

IC50 [1, 7]: < 0.1 µM | IC50 [2, 8]: 0.1 to 1 µM
Molecule: COc1cc2c(cc1Nc1ncc(Cl)c(Nc3ccccc3S(=O)(=O)N3CCCC3)n1)CCN(CC(C)O)CC2 (centres unmarked) [Example 1553, 1-(7-{5-Chloro-4-[2-(pyrrolidine-1-sulfonyl)-phenylamino]-pyrimidin-2-ylamino}-8-methoxy-1,2,4,5-tetrahydro-3-benzazepin-3-yl)-propan-2-ol]

IC50 [1, 7]: < 0.1 µM | IC50 [2, 8]: > 10 µM
Molecule: COc1cc2c(cc1Nc1ncc(Cl)c(N[C@@H]3CCCC[C@H]3NS(C)(=O)=O)n1)NC(=O)CN(C(C)=O)C2 [Example 1657, N-{(1R,2R)-2-[2-(4-Acetyl-7-methoxy-2-oxo-2,3,4,5-tetrahydro-1H-benzo[e][1,4]di-azepin-8-ylamino)-5-chloro-pyrimidin-4-ylamino]-cyclohexyl}-methanesulfonamide]
